Data as given in patent US11083196B2, “Microbiocidal oxadiazole derivatives” (SYNGENTA PARTICIPATIONS AG, priority 2016, dated 2021).

Legend:
[1] = tested on: Puccinia recondita f. sp. tritici; assay: Fungicidal activity against Puccinia recondita f. sp. tritici / wheat / leaf disc curative (brown rust); assay type: in vivo; conditions: foliar, 144 h, wheat leaf segments cv. Kanzler, applied 1 day after inoculation, assessed 6-8 days after application, compared to untreated control
Experimental: Leaf disks or leaf segments of various plant species are cut from plants grown in a greenhouse. The cut leaf disks or segments are placed in multiwell plates (24-well format) onto water agar. The leaf disks are sprayed with a test solution before (preventative) or after (curative) inoculation. Compounds to be tested are prepared as DMSO solutions (max. 10 mg/ml) which are diluted to the appropriate concentration with 0.025% Tween20 just before spraying. The inoculated leaf disks or segments are incubated under defined conditions (temperature, relative humidity, light, etc.) according to the respective test system. A single evaluation of disease level is carried out 3 to 14 days after inoculation, depending on the pathosystem. Percent disease control relative to the untreated check leaf disks or segments is then calculated. Wheat leaf segments cv. Kanzler are placed on agar in multiwell plates (24-well format). The leaf segments are inoculated with a spore suspension of the fungus. Plates are stored in darkness at 19° C. and 75% rh. The formulated test compound diluted in water is applied 1 day after inoculation. The leaf segments are incubated at 19° C. and 75% rh under a light regime of 12 h light/12 h darkness in a climate cabinet and the activity of a compound is assessed as percent disease control compared to untreated when an appropriate level of disease damage appears in untreated check leaf segments (6-8 days after application).

[2] = tested on: Puccinia recondita f. sp. tritici; assay: Fungicidal activity against Puccinia recondita f. sp. tritici / wheat / leaf disc preventative (brown rust); assay type: in vivo; conditions: foliar, 168 h, wheat leaf segments cv. Kanzler, inoculated 1 day after application, assessed 7-9 days after application, compared to untreated control
Method in brief: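 Wheat leaf segments (cv. Kanzler) on water agar sprayed with compound diluted from DMSO stock in water/0.025% Tween20, then inoculated with P. recondita spores 1 day later. Incubated at 19 °C, 75% rh, 12 h light/dark. Percent disease control versus untreated assessed 7-9 days after application.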

Phakopsora pachyrhizi = assay: Fungicidal activity against Phakopsora pachyrhizi / soybean / leaf disc preventative (Asian soybean rust); assay type: in vivo; conditions: foliar, 288 h, soybean leaf disks, inoculated one day after application, assessed 12-14 days after application, compared to untreated control
Experimental: Leaf disks or leaf segments of various plant species are cut from plants grown in a greenhouse. The cut leaf disks or segments are placed in multiwell plates (24-well format) onto water agar. The leaf disks are sprayed with a test solution before (preventative) or after (curative) inoculation. Compounds to be tested are prepared as DMSO solutions (max. 10 mg/ml) which are diluted to the appropriate concentration with 0.025% Tween20 just before spraying. The inoculated leaf disks or segments are incubated under defined conditions (temperature, relative humidity, light, etc.) according to the respective test system. A single evaluation of disease level is carried out 3 to 14 days after inoculation, depending on the pathosystem. Percent disease control relative to the untreated check leaf disks or segments is then calculated. Soybean leaf disks are placed on water agar in multiwell plates (24-well format) and sprayed with the formulated test compound diluted in water. One day after application leaf discs are inoculated by spraying a spore suspension on the lower leaf surface. After an incubation period in a climate cabinet of 24-36 hours in darkness at 20° C. and 75% rh leaf disc are kept at 20° C. with 12 h light/day and 75% rh. The activity of a compound is assessed as percent disease control compared to untreated when an appropriate level of disease damage appears in untreated check leaf disks (12-14 days after application).

[3] = tested on: Glomerella lagenarium (Colletotrichum lagenarium); assay: Fungicidal activity against Glomerella lagenarium (Colletotrichum lagenarium), liquid culture / cucumber / preventative (anthracnose); assay type: cell-based; conditions: Colletotrichum orbiculare, liquid culture (PDB), growth inhibition measured photometrically 3-4 days after application, compared to untreated control
Method in brief: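 Glomerella lagenarium conidia in potato dextrose broth were exposed in 96-well plates to test compound diluted from DMSO stock with 0.025% Tween20 and incubated at 24 °C. Growth inhibition was read photometrically 3–4 days after application, as percent activity relative to untreated check.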

melting point [°C] | Compound | pest or weed control at 200 ppm [1] [%] | pest or weed control at 200 ppm [2] [%] | pest or weed control at 200 ppm (Phakopsora pachyrhizi) [%] | inhibition of growth at 20 ppm [3] [%]
89 to 92 | CC1=NOC(c2ccc(-c3noc(C(F)(F)F)n3)cc2)C1 (stereo not drawn) [Compound A-4, 3-[4-(3-methyl-4,5-dihydroisoxazol-5-yl)phenyl]-5-(trifluoromethyl)-1,2,4-oxadiazole] | ≥ 80 | ≥ 80 | ≥ 80 | ≥ 80
77 to 80 | CC1COC(c2ccc(-c3noc(C(F)(F)F)n3)cc2)=N1 (stereo not drawn) [Compound A-1, 3-[4-(4-methyl-4,5-dihydrooxazol-2-yl)phenyl]-5-(trifluoromethyl)-1,2,4-oxadiazole] | ≥ 80 | ≥ 80 | ≥ 80 | ≥ 80
110 to 115 | FC(F)(F)c1nc(-c2ccc(-c3ccnc(Cl)c3)cc2)no1 [Compound D-26, 3-[4-(2-chloro-4-pyridyl)phenyl]-5-(trifluoromethyl)-1,2,4-oxadiazole] | ≥ 80 | ≥ 80 | ≥ 80 | ≥ 80
